Consider 17 compounds from ChEMBL document CHEMBL4002641, “Indolyl-naphthyl-maleimides as potent and selective inhibitors of protein kinase C-α/β” (Bioorg Med Chem Lett, 2017).

Data set [1] addresses Protein kinase C eta type (Homo sapiens, UniProt P24723). The data set is described as follows: Inhibition of PKCeta (unknown origin) after 60 mins in presence of [gamma33P]ATP by scintillation proximity assay. Background: In a scintillation proximity assay essentially only radioactivity close to the scintillant gives light.
Data set [2] deals with T1, Protein kinase C alpha type (Homo sapiens, UniProt P17252). In words: Inhibition of PKCalpha (unknown origin) after 60 mins in presence of [gamma33P]ATP by scintillation proximity assay.
Data set [3] deals with T2, Protein kinase C beta type (Homo sapiens, UniProt P05771). The data set is described as follows: Inhibition of PKCbeta1 (unknown origin) after 60 mins in presence of [gamma33P]ATP by scintillation proximity assay.
T2 sequence (P05771 whole entry): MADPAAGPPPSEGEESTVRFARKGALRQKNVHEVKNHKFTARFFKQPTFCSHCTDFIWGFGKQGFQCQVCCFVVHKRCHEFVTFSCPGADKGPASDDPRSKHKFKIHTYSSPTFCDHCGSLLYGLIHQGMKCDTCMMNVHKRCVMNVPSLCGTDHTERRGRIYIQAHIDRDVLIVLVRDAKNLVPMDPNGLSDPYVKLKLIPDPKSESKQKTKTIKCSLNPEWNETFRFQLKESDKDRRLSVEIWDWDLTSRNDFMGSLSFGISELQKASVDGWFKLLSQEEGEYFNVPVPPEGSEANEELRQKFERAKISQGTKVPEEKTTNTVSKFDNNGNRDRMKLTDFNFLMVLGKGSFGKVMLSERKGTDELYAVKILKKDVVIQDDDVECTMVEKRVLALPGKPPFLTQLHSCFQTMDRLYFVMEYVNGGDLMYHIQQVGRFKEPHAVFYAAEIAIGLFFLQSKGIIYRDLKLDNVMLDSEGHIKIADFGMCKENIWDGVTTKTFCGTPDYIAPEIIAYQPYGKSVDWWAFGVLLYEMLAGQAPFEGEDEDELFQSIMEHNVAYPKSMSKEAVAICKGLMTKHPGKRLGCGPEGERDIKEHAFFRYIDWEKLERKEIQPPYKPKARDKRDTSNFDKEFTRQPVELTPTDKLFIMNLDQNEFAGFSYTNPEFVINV
The target in data set [4] is Protein kinase C delta type (Homo sapiens, UniProt Q05655). The data set is described as follows: Inhibition of PKCdelta (unknown origin) after 60 mins in presence of [gamma33P]ATP by scintillation proximity assay.
Sequence of Protein kinase C delta type (Q05655 whole entry): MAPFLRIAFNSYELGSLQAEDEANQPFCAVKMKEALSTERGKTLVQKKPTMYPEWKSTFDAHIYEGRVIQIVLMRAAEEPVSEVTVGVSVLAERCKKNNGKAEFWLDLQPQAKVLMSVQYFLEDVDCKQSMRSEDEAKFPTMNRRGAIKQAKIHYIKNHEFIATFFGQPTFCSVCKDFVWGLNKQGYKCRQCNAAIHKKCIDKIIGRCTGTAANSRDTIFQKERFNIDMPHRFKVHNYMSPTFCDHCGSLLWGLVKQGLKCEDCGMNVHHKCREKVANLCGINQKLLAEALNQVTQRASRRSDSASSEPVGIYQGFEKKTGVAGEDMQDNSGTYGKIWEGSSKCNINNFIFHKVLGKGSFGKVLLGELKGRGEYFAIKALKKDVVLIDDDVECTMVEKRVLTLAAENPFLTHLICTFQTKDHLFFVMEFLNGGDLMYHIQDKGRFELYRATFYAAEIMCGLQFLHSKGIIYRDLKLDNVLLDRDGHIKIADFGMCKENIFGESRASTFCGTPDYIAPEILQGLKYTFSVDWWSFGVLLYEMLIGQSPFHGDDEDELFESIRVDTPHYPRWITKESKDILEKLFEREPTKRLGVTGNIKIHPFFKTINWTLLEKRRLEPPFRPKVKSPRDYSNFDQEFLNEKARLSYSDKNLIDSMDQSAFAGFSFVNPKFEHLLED
Data set [5] addresses T3, Protein kinase C epsilon type (Homo sapiens, UniProt Q02156).
T3 sequence (Q02156 whole entry): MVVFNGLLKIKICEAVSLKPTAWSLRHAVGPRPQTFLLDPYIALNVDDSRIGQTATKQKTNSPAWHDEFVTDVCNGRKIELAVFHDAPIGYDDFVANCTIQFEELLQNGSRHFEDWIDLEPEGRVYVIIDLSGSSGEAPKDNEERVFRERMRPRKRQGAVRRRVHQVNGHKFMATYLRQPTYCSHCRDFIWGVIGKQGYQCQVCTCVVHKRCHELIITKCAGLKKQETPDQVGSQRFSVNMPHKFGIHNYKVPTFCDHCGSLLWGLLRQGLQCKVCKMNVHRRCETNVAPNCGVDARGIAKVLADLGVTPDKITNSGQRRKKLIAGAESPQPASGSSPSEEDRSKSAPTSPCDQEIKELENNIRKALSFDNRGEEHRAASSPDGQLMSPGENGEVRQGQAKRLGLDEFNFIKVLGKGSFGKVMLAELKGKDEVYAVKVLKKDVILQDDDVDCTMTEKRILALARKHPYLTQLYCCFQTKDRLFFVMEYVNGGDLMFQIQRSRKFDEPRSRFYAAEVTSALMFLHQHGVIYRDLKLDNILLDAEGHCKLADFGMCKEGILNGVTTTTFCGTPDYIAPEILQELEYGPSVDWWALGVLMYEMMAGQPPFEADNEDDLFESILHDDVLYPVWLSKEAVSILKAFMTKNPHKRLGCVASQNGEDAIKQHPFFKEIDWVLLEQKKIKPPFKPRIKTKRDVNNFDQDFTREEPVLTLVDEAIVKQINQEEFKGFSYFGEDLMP
The data set is described as follows: Inhibition of PKCepsilon (unknown origin) after 60 mins in presence of [gamma33P]ATP by scintillation proximity assay.

For data set [6], the target named is T4, Protein kinase C theta type (Homo sapiens, UniProt Q04759). The data set is described as follows: Inhibition of PKCtheta in human Jurkat T cells assessed as reduction in anti-CD3/CD28 antibody-induced T-cell activation by measuring decrease in IL-2 secretion after 5 hrs by luciferase reporter gene assay. The class given is cell-based. (In general: A reporter such as luciferase makes a cellular process visible.)
T4 sequence (Q04759 whole entry): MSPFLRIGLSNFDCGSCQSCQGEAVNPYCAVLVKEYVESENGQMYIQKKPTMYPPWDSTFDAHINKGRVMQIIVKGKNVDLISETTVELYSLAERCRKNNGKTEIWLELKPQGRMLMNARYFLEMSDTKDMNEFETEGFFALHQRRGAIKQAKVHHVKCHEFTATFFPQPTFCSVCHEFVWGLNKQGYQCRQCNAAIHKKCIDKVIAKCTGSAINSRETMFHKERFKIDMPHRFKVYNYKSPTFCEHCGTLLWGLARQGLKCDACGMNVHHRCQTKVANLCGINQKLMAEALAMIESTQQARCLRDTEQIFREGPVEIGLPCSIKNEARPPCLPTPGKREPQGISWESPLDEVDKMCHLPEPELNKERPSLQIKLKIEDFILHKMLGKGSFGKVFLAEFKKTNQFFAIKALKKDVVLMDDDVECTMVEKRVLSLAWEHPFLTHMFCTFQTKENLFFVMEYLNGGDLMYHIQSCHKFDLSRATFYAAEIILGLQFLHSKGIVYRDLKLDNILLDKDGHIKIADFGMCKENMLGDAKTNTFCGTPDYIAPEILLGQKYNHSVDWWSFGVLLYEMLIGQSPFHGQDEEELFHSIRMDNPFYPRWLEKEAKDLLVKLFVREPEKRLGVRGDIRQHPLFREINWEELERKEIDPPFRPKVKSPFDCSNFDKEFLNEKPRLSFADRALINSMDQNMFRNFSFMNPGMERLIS

The test system of a further data set is PBMC. The data set is described as follows: Inhibition of human PBMC proliferation assessed as decrease in [3H]-TdR uptake after 6 days by mixed lymphocyte reaction assay. The class given is functional, cell-based.
Data set [7] in a line: Aqueous solubility of the compound. The class given is physicochemical. Conditions: buffer.
The target of data set [8] is T4, Protein kinase C theta type. In words: Inhibition of PKCtheta (unknown origin) after 60 mins in presence of [gamma33P]ATP by scintillation proximity assay.
The target in data set [9] is T1, Protein kinase C alpha type. The data set is described as follows: Reversible competitive inhibition of PKCalpha (unknown origin).
The target of data set [10] is T2, Protein kinase C beta type. The data set is described as follows: Reversible competitive inhibition of PKCbeta1 (unknown origin).
For data set [11], the target named is T5, Cyclin-dependent kinase 2 (Homo sapiens, UniProt P24941). In words: Inhibition of CDK2 (unknown origin) at 1 uM.
For data set [12], the target named is T5, Cyclin-dependent kinase 2. The data set is described as follows: Inhibition of CDK2 (unknown origin).

Each structure is given as a SMILES string. Some results are limits rather than exact numbers.

Sequence of Protein kinase C eta type (P24723 whole entry): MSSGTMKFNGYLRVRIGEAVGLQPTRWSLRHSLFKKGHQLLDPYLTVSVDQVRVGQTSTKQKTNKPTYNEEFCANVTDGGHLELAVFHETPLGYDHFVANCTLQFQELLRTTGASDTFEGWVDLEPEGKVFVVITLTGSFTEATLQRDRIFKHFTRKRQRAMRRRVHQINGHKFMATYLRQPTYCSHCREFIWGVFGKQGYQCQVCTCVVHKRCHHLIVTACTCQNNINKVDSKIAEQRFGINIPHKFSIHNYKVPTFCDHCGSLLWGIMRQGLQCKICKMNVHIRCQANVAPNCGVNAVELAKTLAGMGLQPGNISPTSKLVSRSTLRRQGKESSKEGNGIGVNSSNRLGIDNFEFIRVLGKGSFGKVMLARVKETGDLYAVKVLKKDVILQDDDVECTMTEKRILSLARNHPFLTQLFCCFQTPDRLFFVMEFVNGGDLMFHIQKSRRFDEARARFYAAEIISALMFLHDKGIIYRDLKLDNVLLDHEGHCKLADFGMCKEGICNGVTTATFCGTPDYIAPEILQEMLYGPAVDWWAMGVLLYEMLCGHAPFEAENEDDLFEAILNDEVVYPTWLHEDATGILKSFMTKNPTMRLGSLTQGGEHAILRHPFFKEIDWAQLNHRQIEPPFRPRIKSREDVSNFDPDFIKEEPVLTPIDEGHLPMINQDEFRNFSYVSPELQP

The term IC50 denotes the midpoint of a concentration-inhibition curve. As for `CN(C)Cc1ccc2c(C3=C(c4cn(C)c5ccccc45)C(=O)NC3=O)c(Cl)ccc2c1`, the IC50 in [1] was 30 nM; in data set [2] it was 3.7 nM; in data set [3], 6.8 nM; in [4] it was 17 nM; in data set [5], 18 nM; in data set [6], 185 nM. Besides, the 50% inhibitory concentration (IC50) in the data set on PBMC is 54 nM. Also, in data set [7], the solubility entry is given as “Insoluble”.

In the case of `Cc1ccc2ccc(CN)cc2c1C1=C(c2cn(C)c3ccccc23)C(=O)NC1=O`, the IC50 was over 316 nM in [1]; 95 nM in data set [2]; 42 nM in [3]; over 316 nM in [4]; over 316 nM in data set [5]; over 316 nM in [8].

Regarding `CN1CCN(c2nc(C3=C(c4c[nH]c5ccccc45)C(=O)NC3=O)c3ccccc3n2)CC1` [SOTRASTAURIN], the IC50 in data set [6] was 81 nM; in the data set on PBMC, 28 nM.

Take `CC(C)NCc1ccc2ccc(Cl)c(C3=C(c4cn(C)c5ccccc45)C(=O)NC3=O)c2c1`: the IC50 in data set [1] came out at 182 nM; in [2], 2.7 nM; in data set [3], 2.9 nM; in data set [4] it was 79 nM; in data set [5], 73 nM; in data set [8] it was 101 nM.

Turning to `CN(C)Cc1ccc2c(C3=C(c4c[nH]c5ccccc45)C(=O)NC3=O)c(Cl)ccc2c1`, the IC50 in data set [2] came to 1.8 nM; in data set [3] it was 3.4 nM; in [5] it was 4.3 nM; in data set [8], 12 nM; in data set [6] it was 156 nM; with PBMC, 59 nM. The solubility entry in data set [7] is “Insoluble”.

For `NCc1ccc2cccc(C3=C(c4c[nH]c5ccccc45)C(=O)NC3=O)c2c1`, the IC50 in data set [1] is over 316 nM; in [2], 36 nM; in data set [3] it was 75 nM; in [4], over 316 nM; in data set [5] it was over 316 nM; in data set [8] it was over 316 nM.

For the compound `CN(Cc1ccc2ccc(Cl)c(C3=C(c4cn(C)c5ccccc45)C(=O)NC3=O)c2c1)C1CC1`, the IC50 in data set [1] is over 316 nM; in data set [2] it was 63 nM; in [3], 60 nM; in data set [4] it was over 316 nM; in data set [5], over 316 nM; in data set [8], over 316 nM. Besides, the concentration for half-maximal inhibition (IC50) in data set [6] was over 3550 nM. Also, the solubility result in [7] was “Insoluble”.

Consider `Cn1cc(C2=C(c3c(Cl)ccc4ccc(CN5CCC5)cc34)C(=O)NC2=O)c2ccccc21`, for which the half-maximal inhibitory concentration (IC50) in data set [1] amounted to 316 nM; in [2], 3.4 nM; in data set [3], 2 nM; in [4], 230 nM; in data set [5] it was 223 nM; in [8], 254 nM.

With `CC(=O)N(C)Cc1ccc2ccc(Cl)c(C3=C(c4cn(C)c5ccccc45)C(=O)NC3=O)c2c1`, the IC50 was over 316 nM in data set [1]; 63 nM in data set [2]; 41 nM in data set [3]; 284 nM in data set [4]; over 316 nM in data set [5]; over 316 nM in data set [8].

As for `Cn1cc(C2=C(c3cccc4ccc(CN)cc34)C(=O)NC2=O)c2ccccc21`, the IC50 in data set [1] is over 316 nM; in [2] it was 73 nM; in data set [3], 93 nM; in data set [4], over 316 nM; in data set [5] it was over 316 nM; in data set [8], over 316 nM.

On to `Cn1cc(C2=C(c3c(Cl)ccc4ccc(CN)cc34)C(=O)NC2=O)c2ccccc21`, for which the 50% inhibitory concentration (IC50) in [1] was over 316 nM; in [2], 4.7 nM; in data set [3], 3.3 nM; in [4] it was 254 nM; in [5], over 316 nM; in data set [8] it was over 316 nM.

Take `CNCc1ccc2ccc(Cl)c(C3=C(c4cn(C)c5ccccc45)C(=O)NC3=O)c2c1`: the IC50 in data set [1] amounted to 34 nM; in data set [2] it was 0.5 nM; in data set [3], 1.4 nM; in [4] it was 15 nM; in data set [5], 30 nM; in data set [8] it was 21 nM.

In the case of `Cn1cc(C2=C(c3cccc4cc(CN)ccc34)C(=O)NC2=O)c2ccccc21`, the half-inhibitory concentration (IC50) came out at 308 nM in data set [1]; 136 nM in [2]; 133 nM in data set [3]; 92 nM in data set [4]; 225 nM in [5]; 276 nM in [8].

`CN(C)Cc1ccc2ccc(Cl)c(C3=C(c4c[nH]c5ccccc45)C(=O)NC3=O)c2c1`: the IC50 came to 316 nM in data set [1]; 0.5 nM in [2]; 0.7 nM in data set [3]; 303 nM in data set [4]; 182 nM in data set [5]; 216 nM in data set [8]. The results for the IC50 (in data set [6]; in the data set on PBMC) were 708 nM and 406 nM, respectively. The solubility result in data set [7] is “Insoluble”.

For `COCCNCc1ccc2ccc(Cl)c(C3=C(c4cn(C)c5ccccc45)C(=O)NC3=O)c2c1`, the IC50 in [1] was found to be 206 nM; in data set [2] it was 2.8 nM; in [3], 3.1 nM; in data set [4], 39 nM; in data set [5], 110 nM; in data set [8], 21 nM.

For `Cc1ccc2ccc(CN)cc2c1C1=C(c2c[nH]c3ccccc23)C(=O)NC1=O`, the IC50 in data set [1] was over 316 nM; in data set [2], 49 nM; in data set [3], 43 nM; in [4], over 316 nM; in [5], over 316 nM; in data set [8] it was over 316 nM.

As a reminder, the Ki is the equilibrium dissociation constant of an inhibitor or competing ligand from its target. Low values mean a stronger hold on the target, high ones a looser hold on the target. What is called inhibition is the percentage by which the read-out fell short of the control. For `CN(C)Cc1ccc2ccc(Cl)c(C3=C(c4cn(C)c5ccccc45)C(=O)NC3=O)c2c1`, the IC50 in data set [1] came out at 565 nM; in data set [2] it was 4 nM; in data set [3], 3.7 nM; in data set [4] it was 214 nM; in data set [5] it was 402 nM; in data set [8], 263 nM. Moreover, the half-maximal inhibitory concentration (IC50) in data set [12] was determined as 220 nM; in data set [6] it was 402 nM; in the data set with PBMC, 277 nM. For the same compound, the values for the Ki in [9] and in data set [10] were 1 nM and 0.5 nM, respectively. In data set [11], this compound had an inhibition of over 50%. The solubility result in data set [7] was “Insoluble”.
